Assay results reported in the CheMixHub viscosity set.
Values joined by “and” are separate entries in the source; they are usually repeats but may differ in a detail not shown here. Identical values can stand only once. ± gives the uncertainty stated by the source.

Assay: xn = mol fraction of the nth substance listed

CC1CCCCC1O (stereo not given) + NC1CCCCC1
viscosity [mPa·s], 100 kPa
Settings | x1 = 0.04642 | x1 = 0.09319 | x1 = 0.1878 | x1 = 0.2839 | x1 = 0.3814 | x1 = 0.4805 | x1 = 0.5811 | x1 = 0.6834 | x1 = 0.7872 | x1 = 0.8928
293.15 K | 2.657 ± 0.058 | 2.965 ± 0.065 | 3.533 ± 0.077 | 4.632 ± 0.1 | 5.819 ± 0.13 | 7.685 ± 0.17 | 11.76 ± 0.26 | 15.63 ± 0.34 | 20 ± 0.44 | 27.62 ± 0.6
298.15 K | 2.328 ± 0.051 | 2.582 ± 0.056 | 3.048 ± 0.066 | 3.894 ± 0.085 | 4.852 ± 0.11 | 6.53 ± 0.14 | 9.343 ± 0.2 | 12.39 ± 0.27 | 15.17 ± 0.33 | 19.95 ± 0.44
303.15 K | 2.057 ± 0.045 | 2.27 ± 0.05 | 2.656 ± 0.058 | 3.351 ± 0.073 | 4.096 ± 0.089 | 5.343 ± 0.12 | 7.677 ± 0.17 | 9.722 ± 0.21 | 11.73 ± 0.26 | 14.98 ± 0.33
308.15 K | 1.833 ± 0.04 | 2.008 ± 0.044 | 2.335 ± 0.051 | 3.042 ± 0.066 | 3.498 ± 0.076 | 4.468 ± 0.097 | 6.235 ± 0.14 | 7.748 ± 0.17 | 9.687 ± 0.21 | 11.45 ± 0.25
313.15 K | 1.645 ± 0.036 | 1.791 ± 0.039 | 2.068 ± 0.045 | 2.65 ± 0.058 | 3.018 ± 0.066 | 3.782 ± 0.083 | 5.118 ± 0.11 | 6.295 ± 0.14 | 7.365 ± 0.16 | 8.876 ± 0.19

CCCC(C)=O + CCCCN
303.15 K, 101.33 kPa
Settings | viscosity [mPa·s]
x2 = 0.1 | 0.608 ± 0.017
x2 = 0.1974 | 0.752 ± 0.021
x2 = 0.3754 | 0.936 ± 0.026
x2 = 0.5189 | 1.023 ± 0.028
x2 = 0.6418 | 1.061 ± 0.029
x2 = 0.7158 | 0.949 ± 0.026
x2 = 0.8252 | 0.825 ± 0.023
x2 = 0.8978 | 0.709 ± 0.02

Cc1ccccc1C(=O)O + O=C1CCCCCN1
101 kPa, x2 = 0.67
Settings | viscosity [mPa·s]
303.2 K | 108.3 ± 3.1
313.1 K | 58.33 ± 0.88
323.1 K | 34.26 ± 0.5

CCOC(=O)c1ccccc1O + CCCCCOC(C)=O
Settings | viscosity [mPa·s]
298.15 K, 101 kPa, x2 = 0.5 | 1.045 ± 0.01

CCc1ccc(O)cc1 + C[N+](C)(C)CCO.[Cl-]
298.15 K, 101.33 kPa
Settings | viscosity
x1 = 0.7 | 143.3 ± 54 mPa·s
x1 = 0.8 | 84.18 ± 26 mPa·s and 62.12 ± 16 mPa·s and 53.08 ± 13 mPa·s
x1 = 0.9 | 49.12 ± 11 mPa·s

CCCOC(C)=O + ClC(Cl)(Cl)Cl
101.33 kPa
Settings | viscosity [mPa·s]
303.15 K, x2 = 0.0422 | 0.526 ± 0.005
303.15 K, x2 = 0.1298 | 0.547 ± 0.005
303.15 K, x2 = 0.2541 | 0.576 ± 0.005
303.15 K, x2 = 0.3334 | 0.598 ± 0.005
303.15 K, x2 = 0.488 | 0.639 ± 0.005
303.15 K, x2 = 0.5271 | 0.657 ± 0.005
303.15 K, x2 = 0.6005 | 0.676 ± 0.006
303.15 K, x2 = 0.7049 | 0.716 ± 0.006
303.15 K, x2 = 0.8748 | 0.784 ± 0.006
303.15 K, x2 = 0.9403 | 0.815 ± 0.007
313.15 K, x2 = 0.2073 | 0.494 ± 0.004
313.15 K, x2 = 0.4055 | 0.541 ± 0.005
313.15 K, x2 = 0.5078 | 0.568 ± 0.005
313.15 K, x2 = 0.601 | 0.593 ± 0.005
313.15 K, x2 = 0.802 | 0.661 ± 0.005

CCCCCCCCCCCCc1ccccc1S(=O)(=O)[O-].[Na+] + O
viscosity [mPa·s], 101 kPa
Settings | x1 = 5e-06 | x1 = 1e-05 | x1 = 2e-05 | x1 = 2.2e-05 | x1 = 2.7e-05 | x1 = 3.2e-05 | x1 = 3.8e-05 | x1 = 4.3e-05 | x1 = 4.9e-05 | x1 = 5.4e-05
293.15 K | 0.9811 ± 0.059 | 0.9821 ± 0.059 | 0.9837 ± 0.06 | 0.9859 ± 0.06 | 0.9881 ± 0.06 | 0.9903 ± 0.06 | 0.9919 ± 0.06 | 0.9944 ± 0.06 | 0.9974 ± 0.06 | 1.001 ± 0.061
298.15 K | 0.8497 ± 0.051 | 0.8508 ± 0.051 | 0.8522 ± 0.052 | 0.8544 ± 0.052 | 0.8558 ± 0.052 | 0.857 ± 0.052 | 0.8582 ± 0.052 | 0.86 ± 0.052 | 0.8614 ± 0.052 | 0.864 ± 0.052
303.15 K | 0.7683 ± 0.046 | 0.7687 ± 0.046 | 0.77 ± 0.046 | 0.7718 ± 0.047 | 0.7744 ± 0.047 | 0.7763 ± 0.047 | 0.7812 ± 0.047 | 0.7864 ± 0.048 | 0.796 ± 0.048 | 0.7988 ± 0.048
308.15 K | 0.6924 ± 0.042 | 0.6932 ± 0.042 | 0.6943 ± 0.042 | 0.6958 ± 0.042 | 0.6979 ± 0.042 | 0.7013 ± 0.042 | 0.7051 ± 0.043 | 0.7074 ± 0.043 | 0.7106 ± 0.043 | 0.7123 ± 0.043
313.15 K | 0.6075 ± 0.037 | 0.609 ± 0.037 | 0.6102 ± 0.037 | 0.6121 ± 0.037 | 0.6138 ± 0.037 | 0.6167 ± 0.037 | 0.6203 ± 0.038 | 0.623 ± 0.038 | 0.6242 ± 0.038 | 0.6262 ± 0.038

ClC(Cl)(Cl)Cl + CCCCCCCCCCO
298.15 K, 101 kPa
Settings | viscosity [mPa·s]
x2 = 0.05 | 1.031 ± 0.027
x2 = 0.097 | 1.224 ± 0.032
x2 = 0.15 | 1.441 ± 0.038
x2 = 0.2 | 1.775 ± 0.046
x2 = 0.39 | 3.091 ± 0.08
x2 = 0.49 | 4.012 ± 0.1
x2 = 0.59 | 5.08 ± 0.13
x2 = 0.8 | 7.86 ± 0.2

CCN(CC)CC + CCCCCCCC
viscosity [mPa·s], 101.33 kPa
Settings | x1 = 0.1983 | x1 = 0.4032 | x1 = 0.5055 | x1 = 0.6044 | x1 = 0.7987 | x1 = 0.9028
303.15 K | 0.4507 ± 0.0055 | 0.4233 ± 0.0053 | 0.411 ± 0.0053 | 0.3999 ± 0.0052 | 0.3795 ± 0.0051 | 0.3694 ± 0.0051
313.15 K | 0.3913 ± 0.0052 | 0.3701 ± 0.0051 | 0.3605 ± 0.005 | 0.3523 ± 0.005 | 0.3379 ± 0.005 | 0.331 ± 0.0049

ClC(Cl)(Cl)Cl + CCCCCCCCO
viscosity [mPa·s], 101 kPa
Settings | 298.15 K | 308.15 K | 318.15 K
x2 = 0.023 | 0.92 ± 0.009 | 0.796 ± 0.008 | 0.696 ± 0.007
x2 = 0.06 | 1 ± 0.026 | – | –
x2 = 0.1038 | 1.1 ± 0.01 | 0.937 ± 0.009 | 0.805 ± 0.008
x2 = 0.12 | 1.139 ± 0.03 | – | –
x2 = 0.17 | 1.297 ± 0.034 | – | –
x2 = 0.2244 | 1.468 ± 0.014 | 1.221 ± 0.012 | 1.029 ± 0.01
x2 = 0.23 | 1.47 ± 0.038 | – | –
x2 = 0.3266 | 1.867 ± 0.017 | 1.527 ± 0.014 | 1.255 ± 0.012
x2 = 0.44 | 2.483 ± 0.065 | – | –
x2 = 0.54 | 3.124 ± 0.081 | – | –
x2 = 0.5645 | 3.223 ± 0.03 | 2.495 ± 0.023 | 1.946 ± 0.018
x2 = 0.64 | 3.847 ± 0.1 | – | –
x2 = 0.7021 | 4.311 ± 0.039 | 3.197 ± 0.03 | 2.447 ± 0.023
x2 = 0.83 | 5.58 ± 0.14 | – | –
x2 = 0.8568 | 5.746 ± 0.051 | 4.172 ± 0.038 | 3.118 ± 0.029

COc1ccc(C)cc1 + CCCCCOC(C)=O
Settings | viscosity [mPa·s]
298.15 K, 101 kPa, x1 = 0.5 | 0.8602 ± 0.0085

ClC(Cl)(Cl)Cl + C1CCCCC1
Settings | viscosity [mPa·s]
298 K, 101 kPa, x1 = 0.2753 | 0.8903 ± 0.018
298 K, 101 kPa, x1 = 0.3845 | 0.8916 ± 0.018
298 K, 101 kPa, x1 = 0.4418 | 0.8924 ± 0.018
298 K, 101 kPa, x1 = 0.4727 | 0.8928 ± 0.018
298 K, 101 kPa, x1 = 0.58 | 0.8943 ± 0.018
298 K, 101 kPa, x1 = 0.6707 | 0.8955 ± 0.018
298 K, 101 kPa, x1 = 0.6805 | 0.8956 ± 0.018
298 K, 101 kPa, x1 = 0.7701 | 0.8969 ± 0.018
298 K, 101 kPa, x1 = 0.864 | 0.8982 ± 0.018
298 K, 101.3 kPa, x1 = 0.1774 | 0.847 ± 0.008
298 K, 101.3 kPa, x1 = 0.3265 | 0.831 ± 0.008
298 K, 101.3 kPa, x1 = 0.5278 | 0.836 ± 0.008
298 K, 101.3 kPa, x1 = 0.6746 | 0.844 ± 0.008
298 K, 101.3 kPa, x1 = 0.8521 | 0.86 ± 0.009
298.15 K, 101 kPa, x1 = 0.272 | 0.858 ± 0.022
298.15 K, 101 kPa, x1 = 0.5295 | 0.8568 ± 0.022
298.15 K, 101 kPa, x1 = 0.7707 | 0.867 ± 0.022
298.15 K, 101.33 kPa, x1 = 0.272 | 0.858 ± 0.023
298.15 K, 101.33 kPa, x1 = 0.5 | 0.8551 ± 0.023
298.15 K, 101.33 kPa, x1 = 0.5295 | 0.8568 ± 0.023
298.15 K, 101.33 kPa, x1 = 0.625 | 0.8594 ± 0.023
298.15 K, 101.33 kPa, x1 = 0.7707 | 0.867 ± 0.023
318 K, 101.3 kPa, x1 = 0.1636 | 0.6445 ± 0.024
318 K, 101.3 kPa, x1 = 0.3244 | 0.6522 ± 0.024
318 K, 101.3 kPa, x1 = 0.5293 | 0.667 ± 0.025
318 K, 101.3 kPa, x1 = 0.6744 | 0.6869 ± 0.025
318 K, 101.3 kPa, x1 = 0.8658 | 0.7148 ± 0.026

ClC(Cl)(Cl)Cl + CCCCCO
viscosity [mPa·s], 101 kPa
Settings | x2 = 0.0207 | x2 = 0.0826 | x2 = 0.3114 | x2 = 0.4575 | x2 = 0.5771 | x2 = 0.8017
298.15 K | 0.912 ± 0.009 | 0.971 ± 0.009 | 1.306 ± 0.012 | 1.62 ± 0.015 | 1.884 ± 0.018 | 2.761 ± 0.025
308.15 K | 0.798 ± 0.008 | 0.84 ± 0.008 | 1.03 ± 0.01 | 1.241 ± 0.012 | 1.488 ± 0.014 | 2.103 ± 0.02
318.15 K | 0.708 ± 0.007 | 0.741 ± 0.007 | 0.886 ± 0.009 | 1.037 ± 0.01 | 1.199 ± 0.011 | 1.647 ± 0.015
